{"source": "patent US20090018136A1", "about": "“METHODS AND COMPOSITIONS FOR THE TREATMENT OF VASCULAR DISEASE” (priority 2005, published 2009)", "type_in_all_cases": "in vivo, human", "key": {"brachial artery [1]": {"system": "brachial artery", "assay": "Study 2: brachial artery flow-mediated and nitroglycerin-mediated vasodilation", "protocol": "Brachial artery endothelium-dependent and -independent function was measured using ultrasound, at baseline, after 8 weeks of BH4 treatment, and 1 week after discontinuation of therapy. The technique was carried out as described in Prasad et al., Circulation, 2000. 101(20): p. 2349-54. Briefly, using an 11 MHz high resolution ultrasound transducer (Acuson Inc) in a temperature-controlled room, brachial diameter was measured above the antecubital fossa in the non-dominant arm. Flow-mediated vasodilation (FMD) was measured by inflating a BP cuff on the forearm to >200 mm Hg for 5 minutes, deflating rapidly, and measuring brachial diameter at 1 minute after onset of hyperemia. For all measurements three diameters were measured on three separate end-diastolic frames and averaged. To obtain the maximal brachial artery dilation that represents FMD the following equation was used: (average diameter with hyperemia−average baseline diameter)÷average baseline diameter X 100. To measure the endothelium-independent vasodilator response, subjects were given sublingual nitroglycerin 0.4 mg and the brachial diameter was measured as above after 5 minutes. To obtain endothelium-independent vasodilation the following equation was used: (average diameter post nitroglycerin-average baseline diameter)÷average baseline diameter X 100. For both study 1 and study 2, the primary end point after statistical analysis was a reduction of systolic, mean and diastolic BP during BH4 therapy. Secondary end points included improvement of endothelial function as FMD. Linear mixed effects models for repeated measures data were used to analyze change in BP from baseline to end of treatment period and differences in change between 100 mg and 200 mg dose groups. A quadratic term for week was included in the model to account for non-linear trends over the treatment period. Dose, week and week squared were the main effect terms in the model; dose by week and dose by week squared were the interaction terms in the model. Significant interaction terms indicate a difference in the pattern of change between the two dose groups. FMD data was analyzed using the two-tailed student t-test. […] In study 2, brachial artery endothelium-dependent and independent function was measured, as described above, at the end of the 2-week vitamin C run-in period, at the end of 4 weeks of oral BH4 therapy, and 4 weeks after discontinuation of BH4."}, "[2]": {"system": "subjects with sickle cell disease", "assay": "Phase 2a sickle cell disease study: endothelial function by EndoPAT", "details": "preliminary findings, sickle cell disease patients treated with BH4", "protocol": "This Phase 2a multicenter, open-label, dose-escalation study is designed to assess the safety and biologic activity of once daily (for 2.5, 5, and 10 mg/kg/day doses) or twice daily (for the 20 mg/kg/day dose) oral administration of 4 escalating doses of 6R-BH4 to subjects with SCD. During an optional extension phase, the study will assess the safety, tolerability, and efficacy of extended treatment with 6R-BH4. Subjects will receive oral, once-daily (for 2.5, 5, and 10 mg/kg/day) or twice-daily (for 20 mg/kg/day) doses of 6R-BH4 during a 16-week dose-escalation phase, with dose levels increasing within subjects every 4 weeks, as follows: 2.5, 5, 10, and 20 mg/kg/day. Prior to dose escalation, the each subject will be evaluated with respect to safety profile during the previous dose level, using predefined parameters. […] Endothelial function will be evaluated using Doppler echocardiogram (DE), peripheral arterial tonometry (EndoPAT), and exhaled nitric oxide (NO). The symptoms of SCD (frequency of sickle cell crises and vaso-occlusive crises), along with changes in the 6-minute-walk (MW) test, will be monitored. […] The number of tablets will be determined by the dose of sapropterin dihydrochloride, rounded to the nearest 100 mg. […]"}, "brachial artery [3]": {"system": "brachial artery", "assay": "Study 1: brachial artery flow-mediated and nitroglycerin-mediated vasodilation by ultrasound", "protocol": "The technique was carried out as described in Prasad et al., Circulation, 2000. 101(20): p. 2349-54. Briefly, using an 11 MHz high resolution ultrasound transducer (Acuson Inc) in a temperature-controlled room, brachial diameter was measured above the antecubital fossa in the non-dominant arm. Flow-mediated vasodilation (FMD) was measured by inflating a BP cuff on the forearm to >200 mm Hg for 5 minutes, deflating rapidly, and measuring brachial diameter at 1 minute after onset of hyperemia. For all measurements three diameters were measured on three separate end-diastolic frames and averaged. To obtain the maximal brachial artery dilation that represents FMD the following equation was used: (average diameter with hyperemia−average baseline diameter)÷average baseline diameter X 100. To measure the endothelium-independent vasodilator response, subjects were given sublingual nitroglycerin 0.4 mg and the brachial diameter was measured as above after 5 minutes. To obtain endothelium-independent vasodilation the following equation was used: (average diameter post nitroglycerin-average baseline diameter)÷average baseline diameter X 100. For both study 1 and study 2, the primary end point after statistical analysis was a reduction of systolic, mean and diastolic BP during BH4 therapy. Secondary end points included improvement of endothelial function as FMD. Linear mixed effects models for repeated measures data were used to analyze change in BP from baseline to end of treatment period and differences in change between 100 mg and 200 mg dose groups. A quadratic term for week was included in the model to account for non-linear trends over the treatment period. Dose, week and week squared were the main effect terms in the model; dose by week and dose by week squared were the interaction terms in the model. Significant interaction terms indicate a difference in the pattern of change between the two dose groups. FMD data was analyzed using the two-tailed student t-test."}}, "data": [{"smiles": "C[C@H](O)[C@H](O)[C@H]1CNc2nc(N)[nH]c(=O)c2N1", "note": "[BH4, tetrahydrobiopterin]", "values": [{"measurement": "FMD", "setting": "brachial artery [1]; Study 2, 100 mg b.i.d., after therapy, 5.3±2.5% before, p=0.55, no significant change", "value": "6.2±3.5", "unit": "%"}, {"measurement": "FMD", "setting": "brachial artery [1]; Study 2, 200 mg b.i.d., after 4 weeks of therapy, 3.7±3% at start, p=0.016, n=7", "value": "7.1±4.9", "unit": "%"}, {"measurement": "FMD", "setting": "brachial artery [1]; Study 2, 200 mg b.i.d., one month after discontinuation, p=0.6 compared to baseline", "value": "3.2±1.1", "unit": "%"}, {"measurement": "change in nitroglycerin-mediated, endothelium-independent vasodilation", "setting": "brachial artery [1]; Study 2, either group", "value": "no significant change"}, {"measurement": "endothelial function as measured by the EndoPAT device", "setting": "[2]", "value": "improvement"}, {"measurement": "Flow-mediated vasodilation of the brachial artery", "setting": "brachial artery [3]; Study 1, 6 weeks after termination of therapy, p=ns compared to baseline", "value": "3.7±1.3", "unit": "%"}, {"measurement": "Flow-mediated vasodilation of the brachial artery", "setting": "brachial artery [3]; Study 1, after 8 weeks of BH4, baseline mean 3.4±1%, p=0.05, n=6", "value": "8.2±3.4", "unit": "%"}, {"measurement": "Nitroglycerin-mediated vasodilation", "setting": "brachial artery [3]; Study 1, after BH4, 11.9±3% before, p=0.1, remained unchanged", "value": "16.1±5", "unit": "%"}]}]}
